According to ChEMBL document CHEMBL3885881, “DrugMatrix”:

Species on record: Rattus norvegicus
Test: DrugMatrix - Regimen: Daily Repeat
Format: toxicity, organism-based, Sprague-Dawley
Set-up: regimen Daily Repeat, gender Male, age 6-8 weeks
Details: in vivo, po, route oral GAVAGE, vehicle 100 % SALINE; for ABSOLUTE BASOPHIL / ABSOLUTE EOSINOPHIL / ABSOLUTE LYMPHOCYTE / ABSOLUTE MONOCYTE / ABSOLUTE SEGMENTED NEUTROPHIL / BASOPHIL / EOSINOPHIL / ERYTHROCYTE COUNT / HEMATOCRIT / HEMOGLOBIN / LEUKOCYTE COUNT / MEAN CORPUSCULAR HEMOGLOBIN / MEAN CORPUSCULAR HEMOGLOBIN CONCENTRATION / MEAN CORPUSCULAR VOLUME / MONOCYTE / NEUTROPHIL / NUCLEATED RED BLOOD CELLS / PLATELET COUNT: tissue Blood; for ALANINE AMINOTRANSFERASE / ALBUMIN / ALKALINE PHOSPHATASE / ASPARTATE AMINOTRANSFERASE / BLOOD UREA NITROGEN / CARBON DIOXIDE / CHLORIDE / CHOLESTEROL / CREATINE PHOSPHOKINASE / CREATININE / GLUCOSE / LACTATE DEHYDROGENASE / LIPASE / PHOSPHORUS / POTASSIUM / SODIUM / TOTAL BILIRUBIN / TOTAL PROTEIN / URIC ACID: tissue Plasma
[1] = 0 mg/kg, 72 h, dose level Control, time 3 day
[2] = 0 mg/kg, 120 h, dose level Control, time 5 day
[3] = 40 mg/kg, 72 h, dose level Low, time 3 day

Oc1ccccc1O [CATECHOL]
ABSOLUTE BASOPHIL [1]: 0 CELLS/uL | ABSOLUTE EOSINOPHIL [1]: 65.67 CELLS/uL | ABSOLUTE LYMPHOCYTE [1]: 17283.5 CELLS/uL | ABSOLUTE MONOCYTE [1]: 0 CELLS/uL | ABSOLUTE SEGMENTED NEUTROPHIL [1]: 1284.17 CELLS/uL | BASOPHIL [1]: 0% | EOSINOPHIL [1]: 0.33% | ERYTHROCYTE COUNT [1]: 5.46 x10E6/uL | HEMATOCRIT [1]: 34.28% | HEMOGLOBIN [1]: 13.78 G/DL | LEUKOCYTE COUNT [1]: 18.63 x10E3/uL | MEAN CORPUSCULAR HEMOGLOBIN [1]: 25.3 pg | MEAN CORPUSCULAR HEMOGLOBIN CONCENTRATION [1]: 40.22 G/DL | MEAN CORPUSCULAR VOLUME [1]: 62.87 fL | MONOCYTE [1]: 0% | NEUTROPHIL [1]: 7% | NUCLEATED RED BLOOD CELLS [1]: 0 /100WBC | PLATELET COUNT [1]: 1244.83 x10E3/uL | ALANINE AMINOTRANSFERASE [1]: 52.83 u/L | ALBUMIN [1]: 4 G/DL | ALKALINE PHOSPHATASE [1]: 327.67 u/L | ASPARTATE AMINOTRANSFERASE [1]: 78.83 u/L | BLOOD UREA NITROGEN [1]: 13.83 mg/dL | CARBON DIOXIDE [1]: 26.67 mmol/L | CHLORIDE [1]: 99.67 MEQ/L | CHOLESTEROL [1]: 69 mg/dL | CREATINE PHOSPHOKINASE [1]: 350.17 u/L | CREATININE [1]: 0.21 mg/dL | GLUCOSE [1]: 173.83 mg/dL | LACTATE DEHYDROGENASE [1]: 168.33 u/L | LIPASE [1]: 11 u/L | PHOSPHORUS [1]: 12.7 mg/dL | POTASSIUM [1]: 6.88 MEQ/L | SODIUM [1]: 141.68 MEQ/L | TOTAL BILIRUBIN [1]: 0.22 mg/dL | TOTAL PROTEIN [1]: 6.02 G/DL | URIC ACID [1]: 1.9 mg/dL | ABSOLUTE BASOPHIL [2]: 0 CELLS/uL | ABSOLUTE EOSINOPHIL [2]: 14.83 CELLS/uL | ABSOLUTE LYMPHOCYTE [2]: 12880 CELLS/uL | ABSOLUTE MONOCYTE [2]: 90.67 CELLS/uL | ABSOLUTE SEGMENTED NEUTROPHIL [2]: 864.5 CELLS/uL | BASOPHIL [2]: 0% | EOSINOPHIL [2]: 0.17% | ERYTHROCYTE COUNT [2]: 5.83 x10E6/uL | HEMATOCRIT [2]: 35.87% | HEMOGLOBIN [2]: 14 G/DL | LEUKOCYTE COUNT [2]: 13.85 x10E3/uL | MEAN CORPUSCULAR HEMOGLOBIN [2]: 24.03 pg | MEAN CORPUSCULAR HEMOGLOBIN CONCENTRATION [2]: 39.03 G/DL | MEAN CORPUSCULAR VOLUME [2]: 61.53 fL | MONOCYTE [2]: 0.67% | NEUTROPHIL [2]: 6.67% | NUCLEATED RED BLOOD CELLS [2]: 0 /100WBC | PLATELET COUNT [2]: 1041.83 x10E3/uL | ALANINE AMINOTRANSFERASE [2]: 56 u/L | ALBUMIN [2]: 4.47 G/DL | ALKALINE PHOSPHATASE [2]: 319 u/L | ASPARTATE AMINOTRANSFERASE [2]: 89.17 u/L | BLOOD UREA NITROGEN [2]: 15.2 mg/dL | CARBON DIOXIDE [2]: 24 mmol/L | CHLORIDE [2]: 104.4 MEQ/L | CHOLESTEROL [2]: 69.5 mg/dL | CREATINE PHOSPHOKINASE [2]: 295.83 u/L | CREATININE [2]: 0.21 mg/dL | GLUCOSE [2]: 124.33 mg/dL | LACTATE DEHYDROGENASE [2]: 325.5 u/L | LIPASE [2]: 14.67 u/L | PHOSPHORUS [2]: 11.45 mg/dL | POTASSIUM [2]: 6.74 MEQ/L | SODIUM [2]: 151.4 MEQ/L | TOTAL BILIRUBIN [2]: 0.23 mg/dL | TOTAL PROTEIN [2]: 6.45 G/DL | URIC ACID [2]: 1.18 mg/dL | ABSOLUTE BASOPHIL [3]: 0 CELLS/uL | ABSOLUTE EOSINOPHIL [3]: 0 CELLS/uL | ABSOLUTE LYMPHOCYTE [3]: 14994 CELLS/uL | ABSOLUTE MONOCYTE [3]: 0 CELLS/uL | ABSOLUTE SEGMENTED NEUTROPHIL [3]: 739.33 CELLS/uL | BASOPHIL [3]: 0% | EOSINOPHIL [3]: 0% | ERYTHROCYTE COUNT [3]: 5.48 x10E6/uL | HEMATOCRIT [3]: 33.5% | HEMOGLOBIN [3]: 13.33 G/DL | LEUKOCYTE COUNT [3]: 15.73 x10E3/uL | MEAN CORPUSCULAR HEMOGLOBIN [3]: 24.37 pg | MEAN CORPUSCULAR HEMOGLOBIN CONCENTRATION [3]: 39.87 G/DL | MEAN CORPUSCULAR VOLUME [3]: 61.1 fL | MONOCYTE [3]: 0% | NEUTROPHIL [3]: 4.67% | NUCLEATED RED BLOOD CELLS [3]: 0 /100WBC | PLATELET COUNT [3]: 1095.33 x10E3/uL | ALANINE AMINOTRANSFERASE [3]: 43.67 u/L | ALBUMIN [3]: 4.2 G/DL | ALKALINE PHOSPHATASE [3]: 287 u/L | ASPARTATE AMINOTRANSFERASE [3]: 70.67 u/L | BLOOD UREA NITROGEN [3]: 13.33 mg/dL | CARBON DIOXIDE [3]: 23.67 mmol/L | CHLORIDE [3]: 101 MEQ/L | CHOLESTEROL [3]: 74 mg/dL | CREATINE PHOSPHOKINASE [3]: 350.33 u/L | CREATININE [3]: 0.22 mg/dL | GLUCOSE [3]: 176.67 mg/dL | LACTATE DEHYDROGENASE [3]: 113.33 u/L | LIPASE [3]: 10.33 u/L | PHOSPHORUS [3]: 11.93 mg/dL | POTASSIUM [3]: 6.1 MEQ/L | SODIUM [3]: 140.57 MEQ/L | TOTAL BILIRUBIN [3]: 0.17 mg/dL | TOTAL PROTEIN [3]: 6.13 G/DL | URIC ACID [3]: 2 mg/dL
